Data taken from patent US12390472B2 (SUZHOU SINOVENT PHARMACEUTICALS CO., LTD., priority 2018, dated 2025).
Read-outs that look alike come from different tables or passages of the source.

Legend:
WSU-DLCL2 = test: Methylated lysine of histone-H3 (H3K27Me3) detection by ELISA, WSU-DLCL2 cells; format: cell-based; conditions: Homo sapiens, WSUDLCL2, 168 h; WSU-DLCL2, 7 days treatment, H3K27Me3 normalized to total histone-3; read-out: IC50 of cell methylation, WSU-DLCL2
Method: (§1) The operations for adherent cells and suspension cells cultured in 96-well plates were slightly different after they had been treated with compound (4-fold dilution 20 uM-0.009 nM, 3 duplicate wells) for 7 days, and the operations are summarized as follows: For adherent cells, after discarding the medium, 75 uL of 1-fold hypotonic lysis buffer (10 mM Tris-HCl, pH 7.5, containing halt protease inhibitor and PMSF with a final concentration of 1 mM) was added; the plate was frozen at −80° C. for at least 1 h or overnight; once the plate was taken away from the −80° C. environment, 120 uL (to a final volume of about 195 uL) of 1-fold hypotonic lysis buffer (containing protease inhibitor) was added, and the plate was thawed at room temperature and shaken for 2 min for mixing; and 8 uL (to a final volume of about 203 uL) of 2.5 M NaCl was added to each well to a final NaCl concentration of 100 mM and then the plate was shaken for an additional 2 min for mixing.
(§2) For suspension cells (final volume of medium was 100 uL/well), 25 uL of 5-fold hypotonic lysis buffer (50 mM Tris-HCl, pH 7.5, containing halt protease inhibitor and PMSF with a final concentration of 1 mM) was added, and the plate was frozen at −80° C. for at least 1 h or overnight. Once the plate was taken away from the −80° C. environment, 20 uL of 0.625 M NaCl was added to each well to a final NaCl concentration of about 100 mM, and the mixture was mixed well.
(§3) 75 uL or 100 uL of sample (with duplicate wells provided) was added to two 96-well ELISA plates (ThermoFisher Scientific; Immulon 4HBX 3885) and the plates were coated with total protein lysate and incubated overnight at 4° C. 50 uL of lysate was retained for protein quantitation if necessary. The sealing of the plates must be ensured. The plates were washed twice with 300 uL of 1×PBST (PBS containing 0.05% Tween 20) per well. Each well was blocked with 300 uL of dilution (PBS+2% BSA+0.05% Tween 20), incubated for 2 h at room temperature, and washed twice with 1×PBST. Primary antibodies were diluted with a dilution solution containing 1% BSA+0.05% Tween 20. 75-100 uL of anti-H3K27Me3 antibody (CST; 9733; 50% glycerol stock, 1:1,000) or anti-total histone-3 antibody (Abcam; ab1791; 50% glycerol stock, 1:10,000) was added to each well. The plates were incubated for 90 min at room temperature or incubated overnight at 4° C. The plates were washed three times with 1×PBST. 75-100 uL of anti-Rb-IgG-HRP secondary antibody (Cell Signaling Technology; 7074) was added per well, 1:2000 diluted secondary antibody for anti-H3K 27Me3 plate and 1:6000 diluted secondary antibody for anti-histone total histone-3 plate. The plates were incubated at room temperature for 90 min. The plate assayed with anti-histone-3 antibody was used to normalize the data for the corresponding plate assayed with anti-H3K 27me3. The plates must be washed at least three times with 1×PBST after primary or secondary antibody incubation. The plates were assayed by adding 75-100 uL of 3,3′,5,5′-tetramethylbenzidine substrate (CST or ThermoFisher Scientific; TMBS) per well and incubated away from light for 30 min at 37° C. The reaction was terminated by adding 100 uL of 0.5 M H2SO4 per well. The absorbance was read at 450 nm. Curve fitting was performed using Graph Pad program.

Pfeiffer = test: Methylated lysine of histone-H3 (H3K27Me3) detection by ELISA, Pfeiffer cells; format: cell-based, human; conditions: 7 days treatment, H3K27Me3 normalized to total histone-3, read-out: IC50 of cell methylation, Pfeiffer
Method: as §1, §2, §3

EZH2 enzyme complex = EZH2 enzyme complex (Homo sapiens (Human), UniProt Q15910); test: Test on EZH2 inhibitory activity (TR-FRET); format: biochemical; conditions: EZH2 enzyme complex 25 ng/uL, histone H3 peptide 4 uM, SAM 2 uM, 300 min; read-out: IC50 of EZH2 inhibition
Sequence of EZH2 enzyme complex (Q15910 whole entry): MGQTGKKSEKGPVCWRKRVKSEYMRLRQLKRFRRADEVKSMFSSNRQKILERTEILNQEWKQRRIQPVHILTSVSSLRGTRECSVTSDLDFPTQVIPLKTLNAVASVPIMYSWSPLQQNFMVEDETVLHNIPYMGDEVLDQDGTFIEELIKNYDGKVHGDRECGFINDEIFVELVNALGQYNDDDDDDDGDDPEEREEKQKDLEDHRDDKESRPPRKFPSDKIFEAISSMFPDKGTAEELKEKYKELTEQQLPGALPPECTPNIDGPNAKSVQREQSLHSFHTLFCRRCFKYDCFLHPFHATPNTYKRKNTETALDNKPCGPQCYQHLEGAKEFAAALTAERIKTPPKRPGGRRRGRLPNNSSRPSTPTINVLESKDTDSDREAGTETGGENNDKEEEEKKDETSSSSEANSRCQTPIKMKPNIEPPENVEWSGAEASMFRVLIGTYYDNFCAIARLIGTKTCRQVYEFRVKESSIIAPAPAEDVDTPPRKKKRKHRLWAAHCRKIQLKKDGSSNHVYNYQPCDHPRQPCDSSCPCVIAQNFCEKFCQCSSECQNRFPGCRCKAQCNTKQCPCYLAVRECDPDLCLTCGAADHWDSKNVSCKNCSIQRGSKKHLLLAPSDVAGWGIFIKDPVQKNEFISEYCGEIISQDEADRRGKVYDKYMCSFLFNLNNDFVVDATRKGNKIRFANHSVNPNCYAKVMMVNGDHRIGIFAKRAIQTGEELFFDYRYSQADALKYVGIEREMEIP
Sequence of EZH2 enzyme complex (O75530 whole entry partner): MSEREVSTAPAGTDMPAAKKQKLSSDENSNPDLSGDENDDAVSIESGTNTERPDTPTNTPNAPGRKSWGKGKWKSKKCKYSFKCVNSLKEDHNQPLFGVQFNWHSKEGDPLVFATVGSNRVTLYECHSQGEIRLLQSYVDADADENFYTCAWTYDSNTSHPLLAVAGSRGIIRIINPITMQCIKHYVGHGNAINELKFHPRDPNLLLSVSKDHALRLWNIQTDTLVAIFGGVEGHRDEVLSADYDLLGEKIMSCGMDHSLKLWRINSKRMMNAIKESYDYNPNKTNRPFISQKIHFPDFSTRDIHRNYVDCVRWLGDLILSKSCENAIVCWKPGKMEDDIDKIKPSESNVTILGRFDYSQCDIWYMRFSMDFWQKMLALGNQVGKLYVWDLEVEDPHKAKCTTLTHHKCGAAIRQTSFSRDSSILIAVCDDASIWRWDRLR
Sequence of EZH2 enzyme complex (Q15022 whole entry partner): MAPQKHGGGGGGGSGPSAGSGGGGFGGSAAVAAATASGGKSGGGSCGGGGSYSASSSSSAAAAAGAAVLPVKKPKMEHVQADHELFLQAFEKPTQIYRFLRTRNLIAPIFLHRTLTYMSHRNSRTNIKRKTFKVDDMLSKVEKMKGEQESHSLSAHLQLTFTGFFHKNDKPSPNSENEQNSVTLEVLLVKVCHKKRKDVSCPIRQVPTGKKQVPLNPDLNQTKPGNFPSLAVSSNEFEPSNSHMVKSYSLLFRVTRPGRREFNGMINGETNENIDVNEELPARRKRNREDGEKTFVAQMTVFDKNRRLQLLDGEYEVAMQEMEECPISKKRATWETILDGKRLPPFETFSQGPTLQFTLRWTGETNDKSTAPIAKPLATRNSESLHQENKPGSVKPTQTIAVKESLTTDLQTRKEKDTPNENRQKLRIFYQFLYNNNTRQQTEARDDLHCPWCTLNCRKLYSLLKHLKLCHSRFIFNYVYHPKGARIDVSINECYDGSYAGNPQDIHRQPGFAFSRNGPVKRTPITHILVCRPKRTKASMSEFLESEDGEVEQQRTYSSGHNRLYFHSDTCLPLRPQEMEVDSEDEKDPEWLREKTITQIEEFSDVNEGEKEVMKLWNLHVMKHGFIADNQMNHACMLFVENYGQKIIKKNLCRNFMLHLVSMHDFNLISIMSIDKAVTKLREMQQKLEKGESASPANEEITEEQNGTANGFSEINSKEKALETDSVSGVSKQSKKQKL

Row | SMILES | IC50 (WSU-DLCL2) | IC50 (Pfeiffer; Homo sapiens, 168 h) | IC50 (EZH2 enzyme complex) | IC50 (Pfeiffer)
1 | CCN(c1cc(C2CCC2)cc(C(=O)NCc2c(C)cc(C)[nH]c2=O)c1C)C1CCOCC1 [Example 15, 5-cyclobutyl-N-((4,6-dimethyl-2-oxo-1,2-dihydropyridin-3-yl)methyl)-3-(ethyl(tetrahydro-2H-pyran-4-yl)amino)-2-methylbenzamide] | 50 to 500 nM | < 50 nM | 10 to 100 nM | –
2 | CCN(c1cc(OC2CC(CN3CCOCC3)C2)cc(C(=O)NCc2c(C)cc(C)[nH]c2=O)c1C)C1CCOCC1 (stereo not drawn) [Example 16, N-((4,6-dimethyl-2-oxo-1,2-dihydropyridin-3-yl)methyl)-3-(ethyl(tetrahydro-2H-pyran-4-yl)amino)-2-methyl-5-(3-(morpholinylmethyl)cyclobutoxy)benzamide] | 50 to 500 nM | < 50 nM | 10 to 100 nM | –
3 | CCN(c1cc(O[C@H]2C[C@@H](N3CCNCC3)C2)cc(C(=O)NCc2c(C)cc(C)[nH]c2=O)c1C)C1CCOCC1 [Example 17, N-((4,6-dimethyl-2-oxo-1,2-dihydropyridin-3-yl)methyl)-3-(ethyl(tetrahydro-2H-pyran-4-yl)amino)-2-methyl-5-(cis-3-(piperazin-1-yl)cyclobutoxy)benzamide] | 50 to 500 nM | < 50 nM | < 10 nM | –
4 | CCN(c1cc(O[C@H]2C[C@H](N3CCNCC3)C2)cc(C(=O)NCc2c(C)cc(C)[nH]c2=O)c1C)C1CCOCC1 [Example 18, N-((4,6-dimethyl-2-oxo-1,2-dihydropyridin-3-yl)methyl)-3-(ethyl(tetrahydro-2H-pyran-4-yl)amino)-2-methyl-5-(trans-3-(piperazin-1-yl)cyclobutoxy)benzamide] | 50 to 500 nM | < 50 nM | 10 to 100 nM | –
5 | CCN(c1cc(O[C@H]2C[C@@H](N3CCN(C)CC3)C2)cc(C(=O)NCc2c(C)cc(C)[nH]c2=O)c1C)C1CCOCC1 [Example 19, N-((4,6-dimethyl-2-oxo-1,2-dihydropyridin-3-yl)methyl)-3-(ethyl(tetrahydro-2H-pyran-4-yl)amino)-2-methyl-5-(cis-3-(4-methylpiperazin-1-yl)cyclobutoxy)benzamide] | 50 to 500 nM | < 50 nM | 10 to 100 nM | –
6 | CCN(c1cc(O[C@H]2C[C@H](N3CCN(C)CC3)C2)cc(C(=O)NCc2c(C)cc(C)[nH]c2=O)c1C)C1CCOCC1 [Example 20, N-((4,6-dimethyl-2-oxo-1,2-dihydropyridin-3-yl)methyl)-3-(ethyl(tetrahydro-2H-pyran-4-yl)amino)-2-methyl-5-(trans-3-(4-methylpiperazin-1-yl)cyclobutoxy)benzamide] | 50 to 500 nM | < 50 nM | 10 to 100 nM | –
7 | CCN(c1cc(O[C@H]2C[C@@H](N3CCN(C(C)C)CC3)C2)cc(C(=O)NCc2c(C)cc(C)[nH]c2=O)c1C)C1CCOCC1 [Example 21, N-((4,6-dimethyl-2-oxo-1,2-dihydropyridin-3-yl)methyl)-3-(ethyl(tetrahydro-2H-pyran-4-yl)amino)-5-(cis-3-(4-isopropylpiperazin-1-yl)cyclobutoxy)-2-methylbenzamide] | 50 to 500 nM | < 50 nM | 10 to 100 nM | –
8 | CCN(c1cc(O[C@H]2C[C@H](N3CCN(C(C)C)CC3)C2)cc(C(=O)NCc2c(C)cc(C)[nH]c2=O)c1C)C1CCOCC1 [Example 22, N-((4,6-dimethyl-2-oxo-1,2-dihydropyridin-3-yl)methyl)-3-(ethyl(tetrahydro-2H-pyran-4-yl)amino)-5-(trans-3-(4-isopropylpiperazin-1-yl)cyclobutoxy)-2-methylbenzamide] | 50 to 500 nM | < 50 nM | 10 to 100 nM | –
9 | CCN1CCN([C@H]2C[C@@H](Oc3cc(C(=O)NCc4c(C)cc(C)[nH]c4=O)c(C)c(N(CC)C4CCOCC4)c3)C2)CC1 [Example 23, N-((4,6-dimethyl-2-oxo-1,2-dihydropyridin-3-yl)methyl)-3-(ethyl(tetrahydro-2H-pyran-4-yl)amino)-5-(cis-3-(4-ethylpiperazin-1-yl)cyclobutoxy)-2-methylbenzamide] | > 1000 nM | < 50 nM | 10 to 100 nM | –
10 | CCN1CCN([C@H]2C[C@H](Oc3cc(C(=O)NCc4c(C)cc(C)[nH]c4=O)c(C)c(N(CC)C4CCOCC4)c3)C2)CC1 [Example 24, N-((4,6-dimethyl-2-oxo-1,2-dihydropyridin-3-yl)methyl)-3-(ethyl(tetrahydro-2H-pyran-4-yl)amino)-5-(trans-3-(4-ethylpiperazin-1-yl)cyclobutoxy)-2-methylbenzamide] | 50 to 500 nM | < 50 nM | < 10 nM | –
11 | CCN(c1cc(O[C@H]2C[C@@H](N3CCN(C(C)=O)CC3)C2)cc(C(=O)NCc2c(C)cc(C)[nH]c2=O)c1C)C1CCOCC1 [Example 25, cis-5-(3-(4-acetylpiperazin-1-yl)cyclobutoxy)-N-((4,6-dimethyl-2-oxo-1,2-dihydropyridin-3-yl)methyl)-3-(ethyl(tetrahydro-2H-pyran-4-yl)amino)-2-methylbenzamide] | < 50 nM | < 50 nM | 10 to 100 nM | –
12 | CCN(c1cc(O[C@H]2C[C@H](N3CCN(C(C)=O)CC3)C2)cc(C(=O)NCc2c(C)cc(C)[nH]c2=O)c1C)C1CCOCC1 [Example 26, trans-5-(3-(4-acetylpiperazin-1-yl)cyclobutoxy)-N-((4,6-dimethyl-2-oxo-1,2-dihydropyridin-3-yl)methyl)-3-(ethyl(tetrahydro-2H-pyran-4-yl)amino)-2-methylbenzamide] | 50 to 500 nM | < 50 nM | 10 to 100 nM | –
13 | CCN(c1cc(O[C@H]2C[C@@H](N3CCN(S(C)(=O)=O)CC3)C2)cc(C(=O)NCc2c(C)cc(C)[nH]c2=O)c1C)C1CCOCC1 [Example 27, N-((4,6-dimethyl-2-oxo-1,2-dihydropyridin-3-yl)methyl)-3-(ethyl(tetrahydro-2H-pyran-4-yl)amino)-2-methyl-5-(cis-3-(4-(methylsulfonyl)piperazin-1-yl)cyclobutoxy)benzamide] | < 50 nM | < 50 nM | < 10 nM | –
14 | CCN(c1cc(O[C@H]2C[C@H](N3CCN(S(C)(=O)=O)CC3)C2)cc(C(=O)NCc2c(C)cc(C)[nH]c2=O)c1C)C1CCOCC1 [Example 28, N-((4,6-dimethyl-2-oxo-1,2-dihydropyridin-3-yl)methyl)-3-(ethyl(tetrahydro-2H-pyran-4-yl)amino)-2-methyl-5-(trans-3-(4-(methylsulfonyl)piperazin-1-yl)cyclobutoxy)benzamide] | < 50 nM | < 50 nM | 10 to 100 nM | –
15 | CCN(c1cc(O[C@H]2C[C@H](CN3CCOCC3)C2)cc(C(=O)NCc2c(C)cc(C)[nH]c2=O)c1Cl)C1CCOCC1 [Example 29, 2-chloro-N-((4,6-dimethyl-2-oxo-1,2-dihydropyridin-3-yl)methyl)-3-(ethyl(tetrahydro-2H-pyran-4-yl)amino)-5-(trans-3-(morpholinylmethyl)cyclobutoxy)benzamide] | 50 to 500 nM | < 50 nM | 10 to 100 nM | –
16 | CCN(c1cc(O[C@H]2C[C@H](CN3C[C@@H](C)O[C@@H](C)C3)C2)cc(C(=O)NCc2c(C)cc(C)[nH]c2=O)c1Cl)C1CCOCC1 [Example 30, 2-chloro-N-((4,6-dimethyl-2-oxo-1,2-dihydropyridin-3-yl)methyl)-5-(trans-3-((cis-2,6-dimethylmorpholinyl)methyl)cyclobutoxy)-3-(ethyl(tetrahydro-2H-pyran-4-yl)amino)benzamide] | 50 to 500 nM | – | 10 to 100 nM | < 50 nM
